Experimental data: article PMC6952399, “Structures of lipoprotein signal peptidase II from Staphylococcus aureus complexed with antibiotics globomycin and myxovirescin” (Nature Communications, 2020)
Values joined by “and” are separate entries in the source; they are usually repeats but may differ in a detail not shown here. Identical values can stand only once.

Columns and labels:
[1] = biological target: T1, LspMrs (lipoprotein signal peptidase II from methicillin-resistant Staphylococcus aureus) (Staphylococcus aureus, UniProt Q6GHN9); assay: FRET lipopeptide peptidase assay, LspMrs; type: biochemical; settings: for IC50: IC50, FRET, 0.3 µM enzyme, 80 µM substrate, initial rates; for Rate (RFU/min): replicates 1 and 2
T1 construct: MGSS-hexahistidine-SSGR-TEV site (ENLYFQ) (N, cleaved yes); made in house; host or cells: E. coli C43 (DE3)
Method: FRET activity assays. A FRET based assay was developed using a labelled lipopeptide substrate (Supplementary Methods, Supplementary Fig. 3b) to directly monitor the protease activity of LspA. The optimised LspMrs assay buffer included 100 mM Tris/HCl pH 7.8, 150 mM NaCl and 0.09%(w/v) DDM. The corresponding optimized buffer for LspPae included 100 mM MES/NaOH pH 5.6, 150 mM NaCl and 0.05%(w/v) LMNG. All assays were performed at 37 °C.
Reaction mixtures were prepared by pipetting the FRET lipopeptide substrate (dissolved in DMSO) directly into assay buffer at a final concentration of 80 µM. Reaction mixtures were prepared by vortexing (Clifton, cyclone CM-1) for 2 s and incubated at 37 °C, 800 rpm for 10 to 30 min. Equal volumes of the reaction mixture were pipetted into 1.5 mL Eppendorf tubes and 0 to 150 µM globomycin or myxovirescin (in DMSO) added. For dose-response assays, the final DMSO concentration in all reactions was 10%(v/v). Reaction mixtures were pipetted into wells of a 96- (Thermo Scientific) or a 384-well plate (4titude®) and incubated for 10 min at 37 °C in a SpectraMax M3 or a SpectraMax M5e plate reader (Molecular devices) prior to starting the assay. Assays were initiated by adding enzyme to a final concentration in the range 10–300 nM. Total reaction mixture volume was 50 μL. Reactions were monitored by fluorescence (Ex/Em, 320 nm/420 nm) for 30 to 60 min at 37 °C. Initial rates were calculated from the fluorescence intensity versus time progress curves (Supplementary Figs. 5 and 6). Occasionally, lag periods in the progress curves were observed (Supplementary Discussion). In such cases, initial rates were calculated after the lag period had passed (typically 1–5 min) and a steady rate had been established. Dose-response plots to determine IC50 values were generated using Prism® 5 software from GraphPad.
It was possible to convert units of fluorescence change into moles of substrate consumed or products formed because pure products of LspA action on Abz-LALAGC*SS-nY-NH2 had been synthesized and were available. These were used to create a standard curve of fluorescence versus moles of the two products in equimolar amounts and to calculate specific activity values.

[2] = biological target: T2, LspPae (lipoprotein signal peptidase II from Pseudomonas aeruginosa) (Pseudomonas aeruginosa, UniProt Q9HVM5); assay: Coupled gel-shift peptidase assay with proICP substrate, LspPae WT; type: biochemical
T2 construct: made in house
T2 sequence (Q9HVM5 1-169): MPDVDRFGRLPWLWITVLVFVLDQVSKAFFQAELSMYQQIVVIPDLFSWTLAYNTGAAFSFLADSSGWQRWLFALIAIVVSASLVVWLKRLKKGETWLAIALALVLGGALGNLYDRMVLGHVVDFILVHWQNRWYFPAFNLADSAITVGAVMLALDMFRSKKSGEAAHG
Source text: The peptidase activity of LspMrs and P. aeruginosa LspA (LspPae) was quantified in a coupled gel-shift assay developed previously for LspPae[5]. The P. aeruginosa lipoprotein pre-proICP and the first two enzymes in the bacterial lipoprotein processing pathway Lgt and LspA were expressed and purified, as described. For FRET assays LspMrs was expressed and purified as described above and LspPae was expressed and purified as described in a published protocol.
Gel-shift activity assay. For time course assays, reactions were set up containing 12 µM pre-proICP, 250 µM DOPG (Avanti Polar Lipids, Inc.) and 1.2 µM Lgt in Buffer E (50 mM Tris/HCl pH 7.5, 150 mM NaCl, 1 mM DTT, 0.02%(w/v) LMNG). The assay mixtures were incubated at 37 °C and 200 rpm for 60 min to allow Lgt catalysed conversion of pre-proICP to the LspA substrate proICP. The LspA reaction was initiated by adding 0.5 µM LspA directly to the assay mixture. At timed intervals, 20 µL samples were removed and the reaction was stopped by adding 10 µL of 4x SDS loading buffer (62.5 mM Tris/HCl pH 6.8, 2.5%(w/v) SDS, 0.002%(w/v) bromophenol blue, 0.5 M β-mercaptoethanol, 10%(v/v) glycerol). To compare the activity of wild-type and mutant LspMrs, assays were allowed to proceed for 30 min before being stopped with SDS loading buffer. […] The reactions were initiated by adding LspA and allowed to proceed for 30 min. After the reaction was stopped with SDS buffer, 10 μL aliquots were loaded on precast Mini-PROTEAN® TGX^TM gels (Bio-Rad) and run with Tris/glycine buffer (25 mM Tris/HCl pH 8.0, 250 mM glycine, 0.1%(w/v) SDS). The gels were stained using InstantBlue™ (Expedeon) Coomassie based stain and were imaged using a Bio-Rad Gel-Doc imager (Supplementary Fig. 4). Band intensities of ICP were quantified using Image Lab. Dose-response plots to determine IC50 values were generated using Prism® 5 software from GraphPad.

| SMILES | IC50 [1] | Rate (RFU/min) ([1]; LspMrs + Globomycin, log [globomycin] (µM) 0.00) | Rate (RFU/min) ([1]; LspMrs + Globomycin, log [globomycin] (µM) -0.30) | Rate (RFU/min) ([1]; LspMrs + Globomycin, log [globomycin] (µM) -0.52) | Rate (RFU/min) ([1]; LspMrs + Globomycin, log [globomycin] (µM) -0.70) | Rate (RFU/min) ([1]; LspMrs + Globomycin, log [globomycin] (µM) -1.00) | Rate (RFU/min) ([1]; LspMrs + Globomycin, log [globomycin] (µM) -2.00) | Rate (RFU/min) ([1]; LspMrs + Globomycin, log [globomycin] (µM) -3.00) | IC50 [2] | remaining activity at 1000 µM ([2]; Log[Globomycin](M) -3, read-out: Normalized activity) | remaining activity at 100 µM ([2]; Log[Globomycin](M) -4, read-out: Normalized activity) | Rate (RFU/min) ([1]; LspMrs + Myxovirescin, log [myxovirescin] (µM) 0.00) | Rate (RFU/min) ([1]; LspMrs + Myxovirescin, log [myxovirescin] (µM) -0.30) | Rate (RFU/min) ([1]; LspMrs + Myxovirescin, log [myxovirescin] (µM) -0.52) | Rate (RFU/min) ([1]; LspMrs + Myxovirescin, log [myxovirescin] (µM) -0.70) | Rate (RFU/min) ([1]; LspMrs + Myxovirescin, log [myxovirescin] (µM) -1.00) | Rate (RFU/min) ([1]; LspMrs + Myxovirescin, log [myxovirescin] (µM) -2.00) | Rate (RFU/min) ([1]; LspMrs + Myxovirescin, log [myxovirescin] (µM) -3.00) | remaining activity at 50 µM ([2]; read-out: Normalized activity, Log[Myxovirescin](M) -4.30103) |
| --- | --- | --- | --- | --- | --- | --- | --- | --- | --- | --- | --- | --- | --- | --- | --- | --- | --- | --- | --- |
| CCCCCC[C@H]1OC(=O)CNC(=O)[C@H]([C@H](C)O)NC(=O)[C@H](CO)NC(=O)[C@H]([C@H](C)CC)NC(=O)[C@H](CC(C)C)N(C)C(=O)[C@@H]1C [globomycin] | 0.17 µM and 0.167 µM | 0 RFU/min | 0 RFU/min | 0.33 RFU/min and 0.27 RFU/min | 0.64 RFU/min and 0.57 RFU/min | 1.06 RFU/min and 1.05 RFU/min | 1.47 RFU/min and 1.55 RFU/min | 1.53 RFU/min and 1.49 RFU/min | 0.64 ± 0.16 µM | 94.2% | 94% |  |  |  |  |  |  |  |  |
| CCCC1OC(=O)C(C)CC(C)CCCCC(=O)CCCC(CC)C=CC=C(COC)CCC(O)C(O)CC(O)CNC1=O (stereo not drawn) [myxovirescin, myxovirescin A1] | 0.151 µM |  |  |  |  |  |  |  | 1.09 ± 0.34 µM |  |  | 0 RFU/min | 0 RFU/min | 0 RFU/min and 0.13 RFU/min | 0.55 RFU/min and 0.58 RFU/min | 1.04 RFU/min | 1.47 RFU/min and 1.55 RFU/min | 1.49 RFU/min and 1.52 RFU/min | 95.7% |
